Where a name gives a salt, the structure may show the parent alone. ± gives the standard deviation of the averaged measurements.
Experiments:
[1] = system: CHO-K1; test: benchmark concentration for 60% increase in hypodiploid frequency (BMC60); higher = less potent aneugen
Protocol: (§1)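 Benchmark concentration modelling (PROAST, Hill/exponential model families) of the 19-concentration flow-cytometric micronucleus assay in CHO-K1 cells, with and without rat liver S9. Only non-cytotoxic and adequate (relative survival >=40%) concentrations were used. BMR was a 30% increase in %MN (BMC30) or a 60% increase in %hypodiploid (BMC60) over control.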

[2] = system: CHO-K1; test: benchmark concentration for 30% increase in micronucleus frequency (BMC30); higher = less potent clastogen
Protocol: as §1

[3] = S9 metabolic activation: without S9
[4] = S9 metabolic activation: with S9

SMILES | benchmark concentration [1, 3] [µM] | benchmark concentration [2, 3] [µM] | benchmark concentration [1, 4] [µM] | benchmark concentration [2, 4] [µM]
CC(C)(c1ccc(O)cc1)c1ccc(O)cc1 [Bisphenol A] | 48 | 71 | – | –
Cn1cnc([N+](=O)[O-])c1Sc1ncnc2[nH]cnc12 [Azathioprine] | 18 | 83 | 170 | –
c1cc2ccc3cccc4ccc(c1)c2c34 [Pyrene] | 110 | – | – | 40
O=C(O)C(Cl)Cl [Dichloroacetic acid] | 95 | 94 | – | –
O=C(O)C1=NN(c2ccc(S(=O)(=O)O)cc2)C(=O)C1N=Nc1ccc(S(=O)(=O)O)cc1 (centres undefined) [FD&C Yellow 5] | 47 | 25 | – | 15
ClCC(Cl)CCl [1,2,3-Trichloropropane] | 72 | 46 | – | –
OCCCBr [3-Bromo-1-propanol] | 73 | 110 | – | –
CCOP(=S)(OCC)Oc1nc(Cl)c(Cl)cc1Cl [Chlorpyrifos] | 69 | – | 42 | 29
CCC(C)c1ccccc1O (centres undefined) [2-(Butan-2-yl)phenol] | 170 | – | 30 | 23
Cc1ccc(O)cc1 [p-Cresol] | 79 | 73 | – | –
Oc1ccc(Cl)cc1Cl [2,4-Dichlorophenol] | 20 | 17 | – | 17
O=c1c(-c2ccc(O)cc2)coc2cc(O)ccc12 [Daidzein] | – | – | 47 | 14
O=C(O)C1C(C(=O)O)C2(Cl)C(Cl)=C(Cl)C1(Cl)C2(Cl)Cl (centres undefined) [Chlorendic acid] | 97 | 110 | – | –
C[C@]12CC[C@@H]3c4ccc(O)cc4CC[C@H]3[C@@H]1CCC2=O [Estrone] | 5.3 | < 4.5 | – | –
CCCCc1oc2ccccc2c1C(=O)c1cc(I)c(OCCN(CC)CC)c(I)c1 [Amiodarone hydrochloride] | – | – | 11 | 16
CN(Cc1cnc2nc(N)nc(N)c2n1)c1ccc(C(=O)N[C@@H](CCC(=O)O)C(=O)O)cc1 [Methotrexate] | 59 | 51 | – | –
O=C1CCCCCN1 [Caprolactam] | 150 | 44 | – | –
COc1ccc(C)cc1N [2-Methoxy-5-methylaniline] | 89 | 48 | – | –
CC(C)(C)c1cc(O)ccc1O [tert-Butylhydroquinone] | – | – | 23 | 22
CCCCCCCC1CCC(=O)O1 (centres undefined) [5-Heptyldihydro-2(3H)-furanone] | 79 | 75 | – | –
CC1(C)NC(=O)N(c2ccc([N+](=O)[O-])c(C(F)(F)F)c2)C1=O [Nilutamide] | 39 | 21 | – | –
O=[N+]([O-])c1ccc(Oc2ccc(Cl)cc2Cl)cc1 [Nitrofen] | – | 77 | – | –
O=Cc1ccco1 [Furfural] | – | 130 | – | –
COc1ccccc1N [2-Anisidine] | 120 | 46 | – | –
CCCCC=O [Pentanal] | 140 | – | – | 60
COCCOCCOC [Bis(2-methoxyethyl) ether] | – | – | – | 72

SMILES | benchmark concentration [1, 3] [µM] | benchmark concentration [2, 3] [µM] | benchmark concentration [1, 4] [µM] | benchmark concentration [2, 4] [µM]
O=C(c1ccccc1)c1ccccc1 [Benzophenone] | 28 | 59 | – | –
CCCCCCCCCCCCCCCS(=O)(=O)Oc1ccccc1 [C10-21 sulfonic acids phenyl esters] | – | 130 | – | –
C[C@]12CC[C@@H]3c4ccc(O)cc4CC[C@H]3[C@@H]1CC[C@@H]2O [17beta-Estradiol] | 9.9 | 8.1 | – | –
CC1(C)C(=O)N(Cl)C(=O)N1Cl [1,3-Dichloro-5,5-dimethylhydantoin] | 55 | 31 | – | –
NNC(=O)c1ccncc1 [Isoniazid] | 51 | – | – | 21
NC(=O)NO [Hydroxyurea] | 29 | 19 | – | –
CC(O)CO (centres undefined) [1,2-Propylene glycol] | 44 | 130 | – | –
OCC1CO1 (centres undefined) [Glycidol] | – | 99 | – | –
Cc1ccc(O)cc1C [3,4-Dimethylphenol] | 74 | 120 | – | –
ClC(Cl)=C(c1ccc(Cl)cc1)c1ccc(Cl)cc1 [p,p'-DDE] | 16 | 29 | – | 51
Cc1ccc(C)c(O)c1 [2,5-Dimethylphenol] | 39 | 37 | – | –
Cc1cc(O)ccc1Cl [4-Chloro-3-methylphenol] | 46 | 41 | – | 18
COC(=O)NC(=S)Nc1ccccc1NC(=S)NC(=O)OC [Thiophanate-methyl] | 20.5 ± 3.5 | 16.7 ± 4.2 | – | –
CN(C)c1ccc(N=NS(=O)(=O)O)cc1 [Fenaminosulf] | 41 | 27 | – | –
Cc1cc(Cc2ccc(N)c(C)c2)ccc1N [4,4'-Methylenebis(2-methylaniline)] | 33 | 37 | – | –
O=c1[nH]cc(F)c(=O)[nH]1 [5-Fluorouracil] | 99 | 110 | – | –
NS(=O)(=O)c1cc2c(cc1Cl)NCNS2(=O)=O [Hydrochlorothiazide] | 73 | – | – | 29
C=CC(=O)NCNC(=O)C=C [N,N'-Methylenebisacrylamide] | 62 | 44 | – | –
O=P1(N(CCCl)CCCl)NCCCO1 (centres undefined) [Cyclophosphamide monohydrate] | – | 91 | – | –
O=C1OC(c2ccc(O)cc2)(c2ccc(O)cc2)c2ccccc21 [Phenolphthalein] | – | 22 | – | –
Cc1cccc2ccccc12 [1-Methylnaphthalene] | 110 | 57 | – | –
Nc1nc(=S)c2[nH]cnc2[nH]1 [6-Thioguanine] | – | < 4.5 | 74 | 33
CN(C)c1ccc(C(=O)c2ccc(N(C)C)cc2)cc1 [Michlers ketone] | – | – | 22 | 27
O=c1[nH]cnc2c1ncn2[C@H]1CC[C@@H](CO)O1 [2',3'-Dideoxyinosine] | – | 84 | – | –
C[C@@H]1C[C@@H]([C@H](O)CC2CC(=O)NC(=O)C2)C(=O)[C@@H](C)C1 [Cycloheximide] | – | – | – | < 4.5
O=S(=O)(O)C(F)(F)C(F)(F)C(F)(F)C(F)(F)C(F)(F)C(F)(F)C(F)(F)C(F)(F)F [PFOS] | – | 18 | – | –

SMILES | benchmark concentration [1, 3] [µM] | benchmark concentration [2, 3] [µM] | benchmark concentration [1, 4] [µM] | benchmark concentration [2, 4] [µM]
O=c1c(-c2ccc(O)cc2)coc2cc(O)cc(O)c12 [Genistein] | – | 10 | – | –
ClC1=C(Cl)C(Cl)(Cl)C(Cl)=C1Cl [Hexachlorocyclopentadiene] | – | < 4.5 | – | 23
CCOc1ccc2c(c1)C(C)=CC(C)(C)N2 [Ethoxyquin] | – | 55 | – | 86
Nc1ccc(Cl)cc1N [4-Chloro-1,2-diaminobenzene] | – | 41 | – | –
CS(=O)(=O)OCCCCOS(C)(=O)=O [Busulfan] | – | 19 | – | –
CCOCN(C(=O)CCl)c1c(C)cccc1CC [Acetochlor] | – | 39 | – | 79
CN(C)CCCN1c2ccccc2Sc2ccc(Cl)cc21 [Chlorpromazine hydrochloride] | – | 23 | – | –
CCCCCCCCn1sccc1=O [Octhilinone] | – | < 4.5 | – | –
OCCOCCO [Diethylene glycol] | – | 79 | – | –
Oc1cccc2cccnc12 [8-Hydroxyquinoline] | – | 26 | – | 16
CCCN(CCC)N=O [N-Nitrosodipropylamine] | – | – | – | 20
Cc1ccc(O)c(C)c1 [2,4-Dimethylphenol] | – | 79 | – | –
CCOC(=O)c1ccc(O)cc1 [Ethylparaben] | – | 70 | – | –
CCCOC(=O)c1cc(O)c(O)c(O)c1 [Propyl gallate] | – | 17 | – | 24
C=CC(N)=O [Acrylamide] | – | – | – | 47
CCCOC(=O)c1ccc(O)cc1 [Propylparaben] | – | – | – | 37
CC(N)=O [Acetamide] | – | 5.8 | – | –
O=C1C2(Cl)C3(Cl)C4(Cl)C(Cl)(Cl)C5(Cl)C3(Cl)C1(Cl)C5(Cl)C24Cl (centres undefined) [Kepone] | – | 30 | – | 53
CC(C)(OOC(C)(C)c1ccccc1)c1ccccc1 [Dicumyl peroxide] | – | 5.5 | – | 88
CC(=O)N1CCN(c2ccc(OCC3COC(Cn4ccnc4)(c4ccc(Cl)cc4Cl)O3)cc2)CC1 (centres undefined) [Ketoconazole] | – | – | – | 54
O=C(c1ccc(OCCN2CCCCC2)cc1)c1c(-c2ccc(O)cc2)sc2cc(O)ccc12 [Raloxifene hydrochloride] | – | 28 | – | 70
O=CCCCC=O [Glutaraldehyde] | – | 28 | – | –
Oc1cc(Cl)ccc1Oc1ccc(Cl)cc1Cl [Triclosan] | – | – | – | 40
CCCCC(CC)COC(=O)CCCCC(=O)OCC(CC)CCCC (centres undefined) [Di(2-ethylhexyl) adipate] | – | 76 | – | –
